Experimental data reported in patent publication US20250134874A1, “PHARMACEUTICAL FORMULATIONS COMPRISING 3-({[(4R)-7-{METHYL[4-(PROPAN-2-YL)PHENYL]AMINO}-3,4-DIHYDRO-2H-1-BENZOPYRAN-4-YL]METHYL}AMINO)PYRIDINE-4-CARBOXYLIC ACID” (TACHYON THERAPEUTICS, INC., priority 2021, published 2025).

Test system: 301 cancer cell lines from different tumor types (OncoPanel; HD Biosciences)
Test: 2D cell viability inhibition assay (CellTiter-Glo) in cancer cell line panel
Type: cell-based
Conditions: Homo sapiens
Protocol: In a larger screening study, compound 1 was evaluated across a broad cancer cell line panel (OncoPanel; HD Biosciences) composed of 301 cancer cell lines from different tumor types.
2D cell viability inhibition assays were performed in multiwell plates seeded with cells from the panel. After seeding, the plates were cultured overnight in a humidified incubator at 37° C. to promote adherence. Assays were initiated in individual wells by adding either DMSO as a vehicle control, growth media as a blank, or serially diluted compound 1 (10 μM to 0.0005 μM with 1:3 serial dilution). Cultures were incubated for 168 hours after which the number of viable cells in each test well was assessed using the CellTiter-Glo® Luminescent Cell Viability Assay. Luminescence readouts were performed using an EnVision® Multilabel Reader and the compound 1 readouts were normalized to the DMSO control readouts, expressed as a percent of the control. Outliers were flagged out by visual inspection. Percent of control was plotted against the corresponding compound 1 concentration and the absolute IC50 value was determined using four-parameter logistic non-linear regression as the concentration where inhibition was 50% of the control. For maximum inhibition <50%, the absolute IC50 was reported as >10. In addition to EC50 and IC50, AUC was determined and was normalized to the area corresponding to theoretical no-inhibition (the rectangular area defined by the compound dose range and 0 to 100 in y). Emax was recorded as the minimum in y with the compound dose range. For those cell lines where Emax>40, EC50 was manually set to 10 μM. A hierarchical clustering algorithm based on Euclidean distance between the standardized input values and “Ward.D” method as implemented in R hclust function was used to visualize the compound 1 cellular potency data. The sensitive/moderate/resistant calls for each cell line was determined by visually inspecting the resulting clustering dendrogram. All the analyses were done in R Core Team.

Structure (SMILES): CC(C)c1ccc(N(C)c2ccc3c(c2)OCC[C@H]3CNc2cnccc2C(=O)O)cc1 [Compound 1, 3-({[(4R)-7-{methyl[4-(propan-2-yl)phenyl]amino}-3,4-dihydro-2H-1-benzopyran-4-yl]methyl}amino)pyridine-4-carboxylic acid]
- EC50 (KYSE-30, KYSE30 cell line): ≥ 10000 nM
- IC50 (KYSE-30, KYSE30 cell line): 2.43 nM
- IC50 (KYSE-70, 168 h, KYSE70, oesophagus, squamous cell carcinoma, 168 hours): > 10000 nM
- EC50 (KYSE-150, KYSE150 cell line): 4.41 nM
- IC50 (KYSE-150, KYSE150 cell line): 5.1 nM
- EC50 (KYSE-270, KYSE270 cell line): 5.11 nM
- IC50 (KYSE-270, KYSE270 cell line): 5.35 nM
- EC50 (KYSE-410, KYSE410 cell line): 5.47 nM
- IC50 (KYSE-410, KYSE410 cell line): 8.25 nM
- EC50 (KYSE-510, KYSE510 cell line): 3.42 nM
- IC50 (KYSE-510, KYSE510 cell line): 3.4 nM
- IC50 (Kasumi 1, 168 h, KASUMI1, haematopoietic and lymphoid tissue, acute myeloid leukaemia, 168 hours): > 10000 nM
- EC50 (LNCaP, LNCAP cell line): 3.54 nM
- IC50 (LNCaP, LNCAP cell line): 4.65 nM
- EC50 (LS-411N, LS411N cell line): 16.8 nM
- IC50 (LS-411N, LS411N cell line): 16.7 nM
- IC50 (LoVo, LOVO cell line): 57.8 nM
- EC50 (Lu-65, LU65 cell line): 7.19 nM
- IC50 (Lu-65, LU65 cell line): 10.6 nM
- IC50 (Lu-99, 168 h, LU99, lung, large cell carcinoma, 168 hours): > 10000 nM
- EC50 (MC116, MC116 cell line): 5.21 nM
- IC50 (MC116, MC116 cell line): 4.6 nM
- IC50 (MCF7, MCF7 cell line): 435 nM
- IC50 (MDA-MB-157, 168 h, MDAMB157, breast, ductal carcinoma, 168 hours): > 10000 nM
- IC50 (MDA-MB-175-VII, 168 h, MDAMB175VII, breast, ductal carcinoma): > 10000 nM
- IC50 (MDA-MB-231, 168 h, MDAMB231, breast, NS, 168 hours): > 10000 nM
- IC50 (MDA-MB-361, 168 h, MDAMB361, breast, NS, 168 hours): > 10000 nM
- IC50 (MDA-MB-415, 168 h, MDAMB415, breast, NS, 168 hours): > 10000 nM
- IC50 (MDA-MB-436, 168 h, MDAMB436, breast, NS, 168 hours): > 10000 nM
- EC50 (MDA-MB-453, MDAMB453 cell line): 8.03 nM
- IC50 (MDA-MB-453, MDAMB453 cell line): 10.4 nM
- IC50 (MDA-MB-468, 168 h, MDAMB468, breast, NS, 168 hours): > 10000 nM
- EC50 (MES-SA, MESSA cell line): 9 nM
- IC50 (MES-SA, MESSA cell line): 14.3 nM
- EC50 (MIA PaCa-2, MIAPACA2 cell line): 5.28 nM
- IC50 (MIA PaCa-2, MIAPACA2 cell line): 7.02 nM
- EC50 (MKN-1, MKN1 cell line): 4.33 nM
- IC50 (MKN-1, MKN1 cell line): 5.75 nM
- EC50 (MKN-45, MKN45 cell line): 11 nM
- IC50 (MKN-45, MKN45 cell line): 13.5 nM
- EC50 (MOLT-4, MOLT4 cell line): 0.508 nM
- IC50 (MOLT-4, MOLT4 cell line): 1.25 nM
- EC50 (MV4-11, MV411 cell line): 3.92 nM
- IC50 (MV4-11, MV411 cell line): 4.02 nM
- IC50 (Malme-3M, 168 h, MALME3M, skin, NS): > 10000 nM
- IC50 (MeWo, 168 h, skin, NS): > 10000 nM
- EC50 (NCI-H23, NCIH23 cell line): 37.7 nM
- IC50 (NCI-H23, NCIH23 cell line): 42.7 nM
- EC50 (NCI-H69, NCIH69 cell line): 7.14 nM
- IC50 (NCI-H69, NCIH69 cell line): 7.09 nM
- EC50 (NCI-H82, NCIH82 cell line): 3.31 nM
- IC50 (NCI-H82, NCIH82 cell line): 3.54 nM
- EC50 (NCI-H209, NCIH209 cell line): 1.48 nM
- IC50 (NCI-H209, NCIH209 cell line): 1.31 nM
- EC50 (NCI-H358, NCIH358 cell line): 3.05 nM
- IC50 (NCI-H358, NCIH358 cell line): 6.57 nM
- IC50 (NCI-H441, 168 h, NCIH441, lung, adenocarcinoma, 168 hours): > 10000 nM
- EC50 (NCI-H446, NCIH446 cell line): 14.5 nM
- IC50 (NCI-H446, NCIH446 cell line): 119 nM
- EC50 (NCI-H460, NCIH460 cell line): 11.1 nM
- IC50 (NCI-H460, NCIH460 cell line): 11.6 nM
- EC50 (NCI-H508, NCIH508 cell line): 9.16 nM
- IC50 (NCI-H508, NCIH508 cell line): 10.2 nM
- EC50 (NCI-H520, NCIH520 cell line): 5.06 nM
- IC50 (NCI-H520, NCIH520 cell line): 5.9 nM
- EC50 (NCI-H522, NCIH522 cell line): 11.5 nM
- IC50 (NCI-H522, NCIH522 cell line): 17.4 nM
- EC50 (NCI-H524, NCIH524 cell line): 4.98 nM
- IC50 (NCI-H524, NCIH524 cell line): 6.85 nM
- IC50 (NCI-H596, 168 h, NCIH596, lung, mixed adenosquamous carcinoma, 168 hours): > 10000 nM
- EC50 (NCI-H647, NCIH647 cell line): 6.04 nM
- IC50 (NCI-H647, NCIH647 cell line): 9.84 nM
- EC50 (NCI-H661, NCIH661 cell line): 9.06 nM
- IC50 (NCI-H661, NCIH661 cell line): 9.73 nM
- EC50 (NCI-H716, NCIH716 cell line): 5.77 nM
- IC50 (NCI-H716, NCIH716 cell line): 9.51 nM
- EC50 (NCI-H929, NCIH929 cell line): 20.6 nM
- IC50 (NCI-H929, NCIH929 cell line): 34.5 nM
- EC50 (NCI-H1048, NCIH1048 cell line): 0.508 nM
- IC50 (NCI-H1048, NCIH1048 cell line): 0.706 nM
- EC50 (NCI-H1092, NCIH1092 cell line): 3.93 nM
- IC50 (NCI-H1092, NCIH1092 cell line): 7.16 nM
- EC50 (NCI-H1155, NCIH1155 cell line): 0.884 nM
- IC50 (NCI-H1155, NCIH1155 cell line): 0.765 nM
- EC50 (NCI-H1299, NCIH1299 cell line): 5.38 nM
- IC50 (NCI-H1299, NCIH1299 cell line): 7.5 nM
- EC50 (NCI-H1355, NCIH1355 cell line): ≥ 10000 nM
- IC50 (NCI-H1355, NCIH1355 cell line): 20.6 nM
- IC50 (NCI-H1395, 168 h, NCIH1395, lung, adenocarcinoma, 168 hours): > 10000 nM
- EC50 (NCI-H1436, NCIH1436 cell line): ≥ 10000 nM
- IC50 (NCI-H1436, NCIH1436 cell line): 8.75 nM
- EC50 (NCI-H1437, NCIH1437 cell line): 9.48 nM
- IC50 (NCI-H1437, NCIH1437 cell line): 13.1 nM
- IC50 (NCI-H1563, 168 h, NCIH1563, lung, adenocarcinoma, 168 hours): > 10000 nM
- IC50 (NCI-H1573, 168 h, NCIH1573, lung, adenocarcinoma, 168 hours): > 10000 nM
- EC50 (NCI-H1623, NCIH1623 cell line): 8.13 nM
- IC50 (NCI-H1623, NCIH1623 cell line): 18.9 nM
- IC50 (NCI-H1650, 168 h, NCIH1650, lung, bronchioloalveolar adenocarcinoma, 168 hours): > 10000 nM
- EC50 (NCI-H1666, NCIH1666 cell line): 0.508 nM
- IC50 (NCI-H1666, NCIH1666 cell line): 1.17 nM
- EC50 (NCI-H1694, NCIH1694 cell line): 0.508 nM
- IC50 (NCI-H1694, NCIH1694 cell line): 1.75 nM
- EC50 (NCI-H1703, NCIH1703 cell line): 4.88 nM
- IC50 (NCI-H1703, NCIH1703 cell line): 8.05 nM
- IC50 (NCI-H1734, NCIH1734 cell line): > 10000 nM
- IC50 (NCI-H1755, 168 h, NCIH1755, lung, adenocarcinoma, 168 hours): > 10000 nM
- EC50 (NCI-H1793, NCIH1793 cell line): 8.36 nM
- IC50 (NCI-H1793, NCIH1793 cell line): 15.3 nM
- EC50 (NCI-H1836, NCIH1836 cell line): 4.88 nM
- IC50 (NCI-H1836, NCIH1836 cell line): 6.07 nM
- IC50 (NCI-H1838, 168 h, NCIH1838, lung, non-small cell carcinoma, 168 hours): > 10000 nM
- EC50 (NCI-H1930, NCIH1930 cell line): 6.62 nM
- IC50 (NCI-H1930, NCIH1930 cell line): 20 nM
